From patent publication US20220402950A1, “SUBSTITUTED BENZIMIDAZOLES AS PAD4 INHIBITORS” (BRISTOL-MYERS SQUIBB COMPANY, priority 2018, published 2022) come the findings set out here.

The target of the experiment is human PAD4 (hPAD4) (Homo sapiens, UniProt Q9UM07). In words: RFMS Human PAD4 Functional Assay. The class given is biochemical. As to conditions: 5 nM hPAD4, 250 μM BAEE. In short, it runs like this: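 RapidFire ESI-MS quantification, normalised to a modified-citrulline internal standard, after phenyl glyoxal (final 4 mM) derivatisation of the TCA-quenched reaction. The enzyme (10 nM) sat 30 min with compound (up to 50 μM final) before 500 μM BAEE (as added) started a 90 min, 37 °C reaction. Buffer: HEPES pH 7.5, 50 μM calcium, 5 μM TPEN.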
Chain of human PAD4 (hPAD4) (Q9UM07 whole entry): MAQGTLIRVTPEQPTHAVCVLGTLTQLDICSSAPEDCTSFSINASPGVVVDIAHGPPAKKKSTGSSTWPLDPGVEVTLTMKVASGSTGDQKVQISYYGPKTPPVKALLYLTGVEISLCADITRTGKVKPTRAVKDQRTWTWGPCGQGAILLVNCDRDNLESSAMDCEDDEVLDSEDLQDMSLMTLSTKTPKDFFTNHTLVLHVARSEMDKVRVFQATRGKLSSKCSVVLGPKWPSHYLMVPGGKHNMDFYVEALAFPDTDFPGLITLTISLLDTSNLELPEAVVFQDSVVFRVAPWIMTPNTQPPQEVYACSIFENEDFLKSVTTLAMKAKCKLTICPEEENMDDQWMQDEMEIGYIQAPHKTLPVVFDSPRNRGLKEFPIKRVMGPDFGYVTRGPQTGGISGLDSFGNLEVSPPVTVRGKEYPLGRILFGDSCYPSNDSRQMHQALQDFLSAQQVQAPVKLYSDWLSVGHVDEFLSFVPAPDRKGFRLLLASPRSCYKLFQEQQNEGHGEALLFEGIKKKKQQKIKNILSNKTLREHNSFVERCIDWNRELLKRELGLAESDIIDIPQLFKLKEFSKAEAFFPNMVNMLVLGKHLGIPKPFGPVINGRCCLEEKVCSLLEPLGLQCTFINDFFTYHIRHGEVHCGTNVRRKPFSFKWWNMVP

The mark [1] stands for this setting: hPAD4 RFMS IC50, human PAD4, rapid-fire mass spectrum (RFMS) assay.
Setting [2] is: human PAD4, rapid-fire mass spectrum (RFMS) assay, read-out: hPAD4 RFMS IC50.

Read-outs that look alike come from different tables or passages of the source.

A word on the IC50: it is the concentration at which inhibition is half-maximal. For the compound `COc1cc(C(=O)N2C[C@H]3CC[C@@H]2[C@@H]3N)cc2nc(-c3cc4cccc(C5CCNCC5)c4n3CC3CC3)n(C)c12` [Example 4, (1R,4R,7R)-2-{2-[1-(cyclopropylmethyl)-7-(piperidin-4-yl)-1H-indol-2-yl]-7-methoxy-1-methyl-1H-1,3-benzodiazole-5-carbonyl}-2-azabicyclo[2.2.1]heptan-7-amine], under setting [1], the midpoint of inhibition, the IC50, lay at 30 nM. `COc1cc(C(=O)N2C[C@H]3CC[C@@H]2[C@@H]3N)cc2nc(-c3cc4cccc(C5CCN(C(=O)N(C)C)CC5)c4n3CC3CC3)n(C)c12` [Example 188, 4-(2-(5-((1R,4R,7R)-7-amino-2-azabicyclo[2.2.1]heptane-2-carbonyl)-7-methoxy-1-methyl-1H-benzo[d]imidazol-2-yl)-1-(cyclopropylmethyl)-1H-indol-7-yl)-N,N-dimethylpiperidine-1-carboxamide]: under setting [2], the IC50 was 27 nM. In turn, `COc1cc(C(=O)N2C[C@H]3CC[C@@H]2[C@@H]3N)cc2nc(-c3cc4cccc(C5CC(C(=O)N6CC[C@H](O)C6)C5)c4n3CC3CC3)n(C)c12` (single isomer, unassigned) [Example 54] returned an IC50 under setting [1] of 92 nM. The same measure, in the same setting: to `COc1cc(C(=O)N2C[C@H]3CC[C@@H]2[C@@H]3N)cc2nc(-c3cc4cccc(C5CN(C(C)=O)C5)c4n3C)n(Cc3cnn(C)c3)c12` [Example 214, 1-(3-(2-(5-((1R,4R,7R)-7-amino-2-azabicyclo[2.2.1]heptane-2-carbonyl)-7-methoxy-1-((1-methyl-1H-pyrazol-4-yl)methyl)-1H-benzo[d]imidazol-2-yl)-1-methyl-1H-indol-7-yl)azetidin-1-yl)ethan-1-one] belongs 155 nM; to `COC(=O)N1CC(c2cccc3cc(-c4nc5cc(C(=O)N6C[C@H](N)C[C@@H](F)C6)cc(OC)c5n4Cc4cnn(C)c4)n(CC4CC4)c23)C1` [Example 211, methyl 3-(2-(5-((3R,5R)-3-amino-5-fluoropiperidine-1-carbonyl)-7-methoxy-1-((1-methyl-1H-pyraozl-4-yl)methyl)-1H-benzo[d]imidazol-2-yl)-1-(cyclopropylmethyl)-1H-indol-7-yl)azetidine-1-carboxylate], 26 nM.

As for `COc1cc(C(=O)N2C[C@H]3CC[C@@H]2[C@@H]3N)cc2nc(-c3cc4cccc(CCCN)c4n3CC3CC3)n(C)c12` [Example 11, (1R,4R,7R)-2-{2-[7-(3-aminopropyl)-1-(cyclopropylmethyl)-1H-indol-2-yl]-7-methoxy-1-methyl-1H-1,3-benzodiazole-5-carbonyl}-2-azabicyclo[2.2.1]heptan-7-amine], the midpoint of inhibition under setting [1], the IC50, lay at 48 nM. As to `COc1cc(-c2cccc3cc(-c4nc5cc(C(=O)N6C[C@H]7CC[C@@H]6[C@@H]7N)cc(OC)c5n4C)n(CC4CC4)c23)ccc1O` [Example 91, 4-(2-{5-[(1R,4R,7R)-7-amino-2-azabicyclo[2.2.1]heptane-2-carbonyl]-7-methoxy-1-methyl-1H-1,3-benzodiazol-2-yl}-1-(cyclopropylmethyl)-1H-indol-7-yl)-2-methoxyphenol], 42 nM corresponded to half-maximal inhibition under setting [1] (IC50). Compound `COc1cc(C(=O)N2C[C@H]3CC[C@@H]2[C@@H]3N)cc2nc(-c3cc4cccc(CCCS(C)(=O)=O)c4n3CC3CC3)n(C)c12` [Example 27, (1R,4R,7R)-2-{2-[1-(cyclopropylmethyl)-7-(3-methanesulfonylpropyl)-1H-indol-2-yl]-7-methoxy-1-methyl-1H-1,3-benzodiazole-5-carbonyl}-2-azabicyclo[2.2.1]heptan-7-amine] displayed an IC50 under setting [1] of 74 nM. The same measure, in the same setting: to `COc1cc(C(=O)N2C[C@H]3CC[C@@H]2[C@@H]3N)cc2nc(-c3cc4cccc(-c5ccc(O)cc5Cl)c4n3CC3CC3)n(C)c12` [Example 93, 4-(2-{5-[(1R,4R,7R)-7-amino-2-azabicyclo[2.2.1]heptane-2-carbonyl]-7-methoxy-1-methyl-1H-1,3-benzodiazol-2-yl}-1-(cyclopropylmethyl)-1H-indol-7-yl)-3-chlorophenol] belongs 53 nM; to `COc1cc(C(=O)N2C[C@H]3CC[C@@H]2[C@@H]3N)cc2nc(-c3cc4cccc(CCC5CCCNC5)c4n3CC3CC3)n(C)c12` (stereo partly drawn) [Example 32, (1R,4R,7R)-2-{2-[1-(cyclopropylmethyl)-7-[2-(piperidin-3-yl)ethyl]-1H-indol-2-yl]-7-methoxy-1-methyl-1H-1,3-benzodiazole-5-carbonyl}-2-azabicyclo[2.2.1]heptan-7-amine], 32 nM. On to `COc1cc(C(=O)N2C[C@H]3CC[C@@H]2[C@@H]3N)cc2nc(-c3cc4cccc(C5CC6(CNC6)C5)c4n3CC3CC3)n(C)c12` [Example 61, (1R,4R,7R)-2-[2-(7-{2-azaspiro[3.3]heptan-6-yl}-1-(cyclopropylmethyl)-1H-indol-2-yl)-7-methoxy-1-methyl-1H-1,3-benzodiazole-5-carbonyl]-2-azabicyclo[2.2.1]heptan-7-amine], for which, under setting [2], the IC50 amounted to 34 nM. The compound `COc1cc(C(=O)N2C[C@H]3CC[C@@H]2[C@@H]3N)cc2nc(-c3cc4cccc(C5CN(C(=O)Nc6ccccc6)C5)c4n3CC3CC3)n(C)c12` [Example 228, 3-(2-(5-((1R,4R,7R)-7-amino-2-azabicyclo[2.2.1]heptane-2-carbonyl)-7-methoxy-1-methyl-1H-benzo[d]imidazol-2-yl)-1-(cyclopropylmethyl)-1H-indol-7-yl)-N-phenylazetidine-1-carboxamide] gave an IC50 under setting [1] of 41 nM. The same measure, in the same setting: the same measure for `COc1cc(C(=O)N2C[C@H]3CC[C@@H]2[C@@H]3N)cc2nc(-c3cc4cccc(C5CN(C(=O)CCc6ccccc6)C5)c4n3CC3CC3)n(C)c12` [Example 79, 1-[3-(2-{5-[(1R,4R,7R)-7-amino-2-azabicyclo[2.2.1]heptane-2-carbonyl]-7-methoxy-1-methyl-1H-1,3-benzodiazol-2-yl}-1-(cyclopropylmethyl)-1H-indol-7-yl)azetidin-1-yl]-3-phenylpropan-1-one]: 12 nM; for `COc1cc(C(=O)N2C[C@H]3CC[C@@H]2[C@@H]3N)cc2nc(-c3cc4cccc(C5=CCC5)c4n3CC3CC3)n(C)c12` [Example 219, ((1R,4R,7R)-7-amino-2-azabicyclo[2.2.1]heptan-2-yl)(2-(7-(cyclobut-1-en-1-yl)-1-(cyclopropylmethyl)-1H-indol-2-yl)-7-methoxy-1-methyl-1H-benzo[d]imidazol-5-yl)methanone]: 52 nM.

Turning to `COc1cc(C(=O)N2C[C@H]3CC[C@@H]2[C@@H]3N)cc2nc(-c3cc4cccc(C5CCCC(C(N)=O)C5)c4n3CC3CC3)n(C)c12` (single isomer, unassigned) [Example 86], the IC50 under setting [2] came out at 40 nM. The compound `COc1cc(C(=O)N2C[C@H]3CC[C@@H]2[C@@H]3N)cc2nc(-c3cc4cccc(-c5ccc6[nH]c(=O)ccc6c5)c4n3CC3CC3)n(C)c12` [Example 100, 6-(2-{5-[(1R,4R,7R)-7-amino-2-azabicyclo[2.2.1]heptane-2-carbonyl]-7-methoxy-1-methyl-1H-1,3-benzodiazol-2-yl}-1-(cyclopropylmethyl)-1H-indol-7-yl)-1,2-dihydroquinolin-2-one] showed an IC50 under setting [1] of 58 nM. Same read-out and setting: to `COc1cc(C(=O)N2C[C@H](N)C[C@@H](F)C2)cc2nc(-c3cc4cccc(C5CN(C(C)=O)C5)c4n3CC3CC3)n(Cc3cnn(C)c3)c12` [Example 212, 1-(3-(2-(5-((3R,5R)-3-amino-5-fluoropiperidine-1-carbonyl)-7-methoxy-1-((1-methyl-1H-pryazol-4-yl)methyl)-1H-benzo[d]imidazol-2-yl)-1-(cyclopropylmethyl)-1H-indol-7-yl)azetidin-1-yl)ethane-1-one] belongs 35 nM.

On to `COc1cc(C(=O)N2C[C@H]3CC[C@@H]2[C@@H]3N)cc2nc(-c3cc4cccc(NCCC(C)(C)O)c4n3CC3CC3)n(C)c12` [Example 169, ((1R,4R,7R)-7-amino-2-azabicyclo[2.2.1]heptan-2-yl)(2-(1-(cyclopropylmethyl)-7-((3-hydroxy-3-methylbutyl)amino)-1H-indol-2-yl)-7-methoxy-1-methyl-1H-benzo[d]imidazol-5-yl)methanone], for which, under setting [1], it took 198 nM to reach half-maximal inhibition (IC50). `COc1cc(C(=O)N2C[C@H]3CC[C@@H]2[C@@H]3N)cc2nc(-c3cc4cccc(C5CNC5)c4n3CC3CC3)n(C)c12` [Example 8, (1R,4R,7R)-2-{2-[7-(azetidin-3-yl)-1-(cyclopropylmethyl)-1H-indol-2-yl]-7-methoxy-1-methyl-1H-1,3-benzodiazole-5-carbonyl}-2-azabicyclo[2.2.1]heptan-7-amine] registered an IC50 under setting [1] of 73 nM. Take `COc1cc(C(=O)N2C[C@H]3CC[C@@H]2[C@@H]3N)cc2nc(-c3cc4cccc(Br)c4n3CC3CC3)n(C)c12` [Example 1, ((1R,4R,7R)-7-amino-2-azabicyclo[2.2.1]heptan-2-yl)(2-(7-bromo-1-(cyclopropylmethyl)-1H-indol-2-yl)-7-methoxy-1-methyl-1H-benzo[d]imidazol-5-yl)methanone]: under setting [2], the IC50 stood at 162 nM. Under setting [1], `COc1cc(C(=O)N2C[C@H]3CC[C@@H]2[C@@H]3N)cc2nc(-c3cc4cccc(C5CCN(C(=O)NC6CC6)CC5)c4n3CC3CC3)n(C)c12` [Example 249, 4-(2-(5-((1R,4R,7R)-7-amino-2-azabicyclo[2.2.1]heptane-2-carbonyl)-7-methoxy-1-methyl-1H-benzo[d]imidazol-2-yl)-1-(cyclopropylmethyl)-1H-indol-7-yl)-N-cyclopropylpiperidine-1-carboxmaide] yielded an IC50 of 8 nM.

In the case of `CCOP(=O)(OCC)c1cccc2cc(-c3nc4cc(C(=O)N5C[C@H]6CC[C@@H]5[C@@H]6N)cc(OC)c4n3C)n(CC3CC3)c12` [Example 107, diethyl (2-{5-[(1R,4R,7R)-7-amino-2-azabicyclo[2.2.1]heptane-2-carbonyl]-7-methoxy-1-methyl-1H-1,3-benzodiazol-2-yl}-1-(cyclopropylmethyl)-1H-indol-7-yl)phosphonate], the IC50 under setting [2] is 86 nM.
